Experimental data taken from patent US4755594A, “N^6 -substituted adenosines” (Warner-Lambert Company, priority 1986, dated 1988).
pIC50: −log10 of the molar value.

Assays:
[1] = target: T1, adenosine A1 receptor (Rattus norvegicus, UniProt P25099); assay: Adenosine Receptor Binding--A1 Receptor Affinity (RBA1), [3H]-CHA, whole brain membranes; conditions: read-out: RBA-1 IC50
T1 construct: Whole brain minus cerebellum and brainstem from male Long-Evans rats; from tissue; host or cells: whole brain minus cerebellum and brainstem, male Long-Evans rats
T1 sequence (P25099 1-326): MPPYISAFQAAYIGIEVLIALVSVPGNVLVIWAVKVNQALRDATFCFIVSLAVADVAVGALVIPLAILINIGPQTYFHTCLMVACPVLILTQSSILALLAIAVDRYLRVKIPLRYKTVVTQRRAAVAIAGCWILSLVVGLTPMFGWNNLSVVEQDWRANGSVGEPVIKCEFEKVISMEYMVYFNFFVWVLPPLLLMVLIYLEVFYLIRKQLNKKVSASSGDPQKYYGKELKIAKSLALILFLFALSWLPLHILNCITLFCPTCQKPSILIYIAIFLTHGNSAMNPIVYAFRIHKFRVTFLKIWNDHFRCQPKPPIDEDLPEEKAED
Method: Adenosine Receptor Binding--A1 Receptor Affinity (RBA1 )
Whole brain minus cerebellum and brainstem from male Long-Evans rats (150-200 g) was homogenized in 30 volumes of ice-cold 0.05M Tris-HCl buffer pH 7.7 using a Brinkman Polytron PT-10, (setting number 6 for 20 seconds) and centrifuged for ten minutes at 20,000 xg (Sorvall RC-2), 4° C. The supernatant was discarded, and the pellet was resuspended and centrifuged as before. The pellet was resuspended in 20 ml Tris-HCl buffer containing two International Units/ml of adenosine deaminase (Sigma type III from calf intestinal mucosa), incubated at 37° C. for 30 minutes, then subsequently at 0° C. for ten minutes. The homogenate was again centrifuged, and the final pellet was resuspended in ice-cold 0.05M Tris-HCl buffer pH 7.7 to a concentration of 20 mg/ml original wet tissue weight and used immediately.
Tissue homogenate (10 mg/ml) was incubated in 0.05M Tris-HCl buffer pH 7.7 containing 1.0 nM [^3 H]--N^6 -cyclohexyladenosine ([^3 H]--CHA) with or without test agents in triplicate for one hour at 25° C. Incubation volume was 2 ml. Unbound [^3 H]--CHA was separated by rapid filtration under reduced pressure through Whatman glass fiber (GF/B) filters. The filters were rinsed three times with 5 ml of ice cold 0.05M Tris-HCl buffer pH 7.7. The radio-labeled ligand retained on the filter was measured by liquid scintillation spectrophotometry after shaking the filters for one hour or longer on a mechanical shaker in 10 ml of Beckman Ready-Solv HP scintillation cocktail.
Nonspecific binding was defined as the binding which occurred in the presence of 1 mM theophylline. The concentration of test agent which inhibited 50% of the specific binding (IC50) was determined by nonlinear computer curve fit. The Scatchard plot was calculated by linear regression of the line obtained by plotting the amount of radioligand bound (pmoles/gram of tissue) [formula] Since the amount of radioligand bound was a small fraction of the total amount added, free radioligand was defined as the concentration of (nM) of radioligand added to the incubation mixture. The Hill coefficient was calculated by linear regression of the line obtained by plotting the log of the bound radioligand vs the log of the [formula] The maximal number of binding sites (Bmax) was calculated from the Scatchard plot.

[2] = target: T2, adenosine A2 receptor (Rattus norvegicus, UniProt P30543); assay: Adenosine Receptor Binding--A2 Receptor Affinity (RBA2), [3H]NECA, striatal membranes; conditions: read-out: RBA-2 IC50
T2 construct: Brains were thawed and then kept on ice while the striata were dissected out; tissue Pel-Freez (Rogers, Ark.); host or cells: striata of Sprague-Dawley rats (Long-Evans hooded rats gave essentially identical results)
T2 sequence (P30543 whole entry): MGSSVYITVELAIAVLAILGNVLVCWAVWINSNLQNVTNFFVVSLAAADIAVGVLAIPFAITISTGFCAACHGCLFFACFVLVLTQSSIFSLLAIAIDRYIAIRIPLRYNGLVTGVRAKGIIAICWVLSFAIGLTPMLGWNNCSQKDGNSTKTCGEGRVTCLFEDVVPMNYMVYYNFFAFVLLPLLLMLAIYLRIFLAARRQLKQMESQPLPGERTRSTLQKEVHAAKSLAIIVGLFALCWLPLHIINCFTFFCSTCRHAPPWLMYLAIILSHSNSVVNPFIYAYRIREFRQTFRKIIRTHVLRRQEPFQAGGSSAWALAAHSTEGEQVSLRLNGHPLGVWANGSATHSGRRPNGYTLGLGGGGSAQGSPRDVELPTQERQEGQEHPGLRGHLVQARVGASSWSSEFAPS
Method: Adenosine Receptor Binding--A2 Receptor Affinity (RBA2)
Brains from 200-500 g mixed sex Sprague-Dawley rats were purchased from Pel-Freez (Rogers, Ark.). Fresh brains from male Long-Evans hooded rats (Blue Spruce Farms, Altamont, NY) gave essentially identical results. Brains were thawed and then kept on ice while the striata were dissected out. Striata were disrupted in 10 vol of ice-cold 50 mM Tris.HCl (pH 7.7 at 25° C., pH 8.26 at 5° C.) (Tris) for 30 seconds in a Polytron PT-10 (Brinkmann) at setting 5. The suspension was centrifuged at 50,000 xg for ten minutes, the supernatant discarded, the pellet resuspended in 10 vol ice-cold Tris as above, recentrifuged, resuspended at 1 g/5ml, and stored in plastic vials at -70° C. (stable for at least six months). When needed, tissue was thawed at room temperature, disrupted in a Polytron, and kept on ice until used.
All incubations were for 60 minutes at 25° C. in 12×75 mm glass tubes containing 1 ml Tris with 5 mg original tissue weight of rat weight of rat striatal membranes, 4 nM [^3 H]--N-ethyl adenosine-5'-carboxamide ([^3 H]NECA), 50 nM N^6 -cyclopentyladenosine (to eliminate A1 receptor binding), 10 mM MgCl2, 0.1 units/ml of adenosine deaminase and 1% dimethylsulfoxide. N^6 -Cyclopentyladenosine was dissolved at 10 mM in 0.02N HCl and diluted in Tris. Stock solutions and dilutions of N^6 -cyclopentyladenosine could be stored at -20° C. for several months. Test compounds were dissolved at 10 mM in dimethylsulfoxide on the same day as the experiment, and diluted in dimethylsulfoxide to 100×the final incubation concentration. Control incubations received an equal volume (10 μl) of dimethylsulfoxide; the resulting concentration of dimethylsulfoxide had no effect on binding. [^3 H]NECA was diluted to 40 nM in Tris. The membrane suspension (5 mg/0.79 ml) contained sufficient MgCl2 and adenosine deaminase to give 10 mM and 0.1 units/ml, respectively, final concentration in the incubation. […] After all additions, the rack of tubes was vortexed, and the tubes were then incubated for 60 min at 25° C. in a shaking water bath. The rack of tubes was vortexed an additional time halfway through the incubation.
Incubations were terminated by filtration through 2.4 cm GF/B filters under reduced pressure. Each tube was filtered as follows: the contents of the tube were poured on the filter, 4 ml of ice-cold Tris were added to the tube and the contents poured onto the filter, and the filter was washed twice with 4 ml of ice-cold Tris. The filtration was complete in about twelve seconds. Filters were put in scintillation vials, 8 ml of Formula 947 scintillation fluid added, and the vials left overnight, shaken, and counted in a liquid scintillation counter at 40% efficiency.
Nonspecific binding was defined as binding in the presence of 100 μM N^6 -cyclopentyladenosine, and specific binding was defined as total binding minus nonspecific binding. The IC50 was calculated by weighted nonlinear least squares curve-fitting to the mass-action equation. [formula] where Y is cpm bound
T is cpm total binding without drug
S is cpm specific binding without drug
D is the concentration of drug and
K is the IC50 of the drug
Weighting factors were calculated under the assumption that the standard deviation was proportional to the predicted value of Y. Nonspecific binding was treated as a very large (infinite) concentration of drug in the computer analysis.

`OC[C@H]1O[C@@H](n2cnc3c(NCC4(c5ccccc5)CC4)ncnc32)[C@H](O)[C@@H]1O` [Example 1, N6-((1-Phenylcyclopropyl)methyl)adenosine] was tested, and the pIC50 [1] was 7.55 and the pIC50 [2] was 7.10.
In the case of `OC[C@H]1O[C@@H](n2cnc3c(NCC4(c5cccc(Cl)c5)CC4)ncnc32)[C@H](O)[C@@H]1O` [Example 2, N6-((1-(3-Chlorophenyl)cyclopropyl)methyl)adenosine], the pIC50 [1] was 7.49 and the pIC50 [2] was 6.70.
`OC[C@H]1O[C@@H](n2cnc3c(NCC4(c5cccs5)CC4)ncnc32)[C@H](O)[C@@H]1O` [Example 3, N6-((1-Thien-2-ylcyclopropyl)methyl)adenosine] was tested, and the pIC50 [1] was 8.14 and the pIC50 [2] was 8.07.
`O[C@@H]1[C@H](O)[C@@H](CCl)O[C@H]1n1cnc2c(NCC3(c4ccccc4)CC3)ncnc21` [Example 5, 5'-Deoxy-5'-chloro-N6-((1-phenylcyclopropyl)methyl)adenosine] was tested, and the pIC50 [1] was 7.28 and the pIC50 [2] was 6.38.
For `O[C@@H]1[C@H](O)[C@@H](CCl)O[C@H]1n1cnc2c(NCC3(c4cccs4)CC3)ncnc21` [Example 6, 5'-Chloro-5'-deoxy-N6-((1-thien-2-ylcyclopropyl)methyl)adenosine], the pIC50 [1] was 7.74 and the pIC50 [2] was 7.17.
For `OC[C@H]1O[C@@H](n2cnc3c(NCC4(c5ccccc5)CCC4)ncnc32)[C@H](O)[C@@H]1O` [Example 7, N6-((1-Phenylcyclobutyl)methyl)adenosine], the pIC50 [1] was 7.80 and the pIC50 [2] was 6.82.
Work on `OC[C@H]1O[C@@H](n2cnc3c(NCC4(c5cccc(Cl)c5)CCC4)ncnc32)[C@H](O)[C@@H]1O` [Example 8, N6-((1-(3-Chlorophenyl)cyclobutyl)methyl)adenosine] yielded a pIC50 [1] of 7.51 and a pIC50 [2] of 6.49.
`OC[C@H]1O[C@@H](n2cnc3c(NCC4(c5cccs5)CCC4)ncnc32)[C@H](O)[C@@H]1O` [Example 9, N6-((1-Thien-2-ylcyclobutyl)methyl)adenosine] gave a pIC50 [1] of 8.25 and a pIC50 [2] of 7.06.
With `OC[C@H]1O[C@@H](n2cnc3c(NCC4(c5ccccc5)CCCC4)ncnc32)[C@H](O)[C@@H]1O` [Example 10, N6-((1-Phenylcyclopentyl)methyl)adenosine] the pIC50 [1] was 6.96 and the pIC50 [2] was 6.34.
Work on `OC[C@H]1O[C@@H](n2cnc3c(NCC4(c5ccccc5)CCCCC4)ncnc32)[C@H](O)[C@@H]1O` [Example 11, N6-((1-Phenylcyclohexyl)methyl)adenosine] yielded a pIC50 [1] of 6.39 and a pIC50 [2] of 5.49.
`OC[C@H]1O[C@@H](n2cnc3c(NCC4(c5ccc(Cl)cc5)CC4)ncnc32)[C@H](O)[C@@H]1O` [Example 12, N6-((1-(4-Chlorophenyl)cyclopropyl)methyl)adenosine] showed a pIC50 [1] of 7.15 and a pIC50 [2] of 5.92.
